Marks after values point to notes of the source that are not given here.
settings: method [a]: LC-MS at pH 2.7, 0.1% formic acid in water / acetonitrile gradient

Q: With `CC(CF)(CF)C1(Cc2ccncc2F)CO1` (stereo not drawn) [XII-8] as the compound, how does the LogP read?
A: 1.79^[a]

Q: With `FC1(C2(Cc3ccnc(Cl)c3)CO2)CC1` (stereo not drawn) [XII-9] as the compound, how does the LogP read?
A: 2.27^[a]

Q: With `CC(CF)(CF)C1(Cc2ccnc(Cl)c2)CO1` (stereo not drawn) [XII-10] as the compound, how does the LogP read?
A: 2.38^[a]

Q: Which LogP does the source give for `Clc1cc(CC2(C3(Cl)CC3)CO2)ccn1` (stereo not drawn) [XII-11] here?
A: 2.80^[a]

Q: With `CC(CF)(CF)C1(Cc2cc(Cl)ncc2F)CO1` (stereo not drawn) [XII-12] as the compound, how does the LogP read?
A: 2.69^[a]

Q: With `Fc1cnc(Cl)cc1CC1(C2(F)CC2)CO1` (stereo not drawn) [XII-13] as the compound, how does the LogP read?
A: 2.57^[a]

Q: With `Fc1cnc(Cl)cc1CC1(C2(Cl)CC2)CO1` (stereo not drawn) [XII-14] as the compound, how does the LogP read?
A: 3.15^[a]

Q: For `CC(C)(Cl)C1(Cc2ccncc2Cl)CO1` (stereo not drawn) [XII-15], which LogP is on record?
A: 2.57^[a]

Q: With `Clc1cnccc1CC1(C2(Cl)CCCC2)CO1` (stereo not drawn) [XII-16] as the compound, how does the LogP read?
A: 3.42^[a]

Q: For `Clc1cnccc1CC1(C2(Cl)CCCCC2)CO1` (stereo not drawn) [XII-17], which LogP is on record?
A: 3.80^[a]

Q: For `CC(CF)(CF)C1(Cc2ccncc2Cl)CO1` (stereo not drawn) [XII-18], which LogP is on record?
A: 2.16^[a]

Q: With `FC1(C2(Cc3ccncc3Cl)CO2)CC1` (stereo not drawn) [XII-19] as the compound, how does the LogP read?
A: 2.06^[a]

Q: Which LogP does the source give for `Fc1cc(CC2(C3(Cl)CC3)CO2)c(Cl)cn1` (stereo not drawn) [XII-20] here?
A: 3.41^[a]

Q: With `Fc1cc(CC2(C3(F)CC3)CO2)c(Cl)cn1` (stereo not drawn) [XII-21] as the compound, how does the LogP read?
A: 2.80^[a]

Q: Which LogP does the source give for `CC(CF)(CF)C1(Cc2cc(F)ncc2Cl)CO1` (stereo not drawn) [XII-22] here?
A: 2.84^[a]

Q: With `FC1(C2(Cc3cccnc3Cl)CO2)CC1` (stereo not drawn) [XII-23] as the compound, how does the LogP read?
A: 2.18^[a]

Q: For `Clc1cc(CC2(C3(Cl)CC3)CO2)cc(Cl)n1` (stereo not drawn) [XII-24], which LogP is on record?
A: 3.80^[a]

Q: Which LogP does the source give for `ClC1(C2(Cc3ccncn3)CO2)CC1` (stereo not drawn) [XII-25] here?
A: 1.44^[a]

Q: For `Fc1c(CC2(C3(Cl)CC3)CO2)ccnc1Cl` (stereo not drawn) [XII-26], which LogP is on record?
A: 3.11^[a]

Q: For `CC(CF)(CF)C1(Cc2ccnc(Cl)c2F)CO1` (stereo not drawn) [XII-27], which LogP is on record?
A: 2.65^[a]

Q: With `Fc1c(CC2(C3(F)CC3)CO2)ccnc1Cl` (stereo not drawn) [XII-28] as the compound, how does the LogP read?
A: 2.53^[a]

Q: With `Clc1ccc(CC2(C3(Cl)CC3)CO2)c(Cl)n1` (stereo not drawn) [XII-30] as the compound, how does the LogP read?
A: 3.71^[a]

Q: With `Fc1ncccc1CC1(C2(Cl)CC2)CO1` (stereo not drawn) [XII-31] as the compound, how does the LogP read?
A: 2.47^[a]

Q: Which LogP does the source give for `Clc1cncc(Cl)c1CC1(C2(Cl)CC2)CO1` (stereo not drawn) [XII-32] here?
A: 3.68^[a]

Q: Which LogP does the source give for `CC(CF)(CF)C1(Cc2c(Cl)cncc2Cl)CO1` (stereo not drawn) [XII-33] here?
A: 2.89^[a]

Q: Which LogP does the source give for `FC1(C2(Cc3c(Cl)cncc3Cl)CO2)CC1` (stereo not drawn) [XII-34] here?
A: 2.93^[a]

Q: Which LogP does the source give for `FC(F)(F)c1cnccc1CC1(C2(Cl)CC2)CO1` (stereo not drawn) [XII-38] here?
A: 3.04^[a]

Q: For `Cc1cccc2cc(CC3(C4(Cl)CC4)CO3)c(Cl)nc12` (stereo not drawn) [XII-39], which LogP is on record?
A: 4.90^[a]

Q: With `Clc1ccnc(Cl)c1CC1(C2(Cl)CC2)CO1` (stereo not drawn) [XII-40] as the compound, how does the LogP read?
A: 3.53^[a]

Q: With `Clc1cnc(Cl)c(CC2(C3(Cl)CC3)CO2)c1` (stereo not drawn) [XII-41] as the compound, how does the LogP read?
A: 3.87^[a]

Q: For `Clc1cc(CC2(C3(Cl)CC3)CO2)c(Cl)cn1` (stereo not drawn) [XII-42], which LogP is on record?
A: 3.70^[a]

same assay, conditions: pH 2.7

Q: With `OC(Cc1c(Cl)cncc1Cl)(Cn1cncn1)c1ccc(Cl)nc1` (racemic) [Example I-63] as the compound, how does the LogP read?
A: 1.89^[a]

Q: With `OC(Cc1ccncc1Cl)(Cn1cncn1)C1(c2ccccc2)CC1` (racemic) [Example I-78] as the compound, how does the LogP read?
A: 2.23^[a]

Q: For `OC(Cc1ccccc1F)(Cc1ccncc1F)Cn1cncn1` (stereo not drawn) [Example I-20], which LogP is on record?
A: 1.63^[a]

Q: With `C[Si](C)(C)OC(Cc1cnccn1)(Cn1cncn1)C1(Cl)CC1` (stereo not drawn) [Example I-28] as the compound, how does the LogP read?
A: 2.75^[a]

Q: For `OC(Cc1cccc(Cl)c1)(Cc1ccnc(Cl)c1)Cn1cncn1` (stereo not drawn) [Example I-37], which LogP is on record?
A: 2.42^[a]

Q: With `OC(Cc1cc(Cl)ccn1)(Cn1cncn1)C1(Cl)CC1` (stereo not drawn) [Example I-47] as the compound, how does the LogP read?
A: 2.02^[a]

Q: With `Cc1ccnc(CC(O)(Cn2cncn2)C2(Cl)CC2)c1` (stereo not drawn) [Example I-52] as the compound, how does the LogP read?
A: 0.52^[a]

Q: With `OC(Cc1cc(Cl)nc2ccccc12)(Cn1cncn1)C1(Cl)CC1` (stereo not drawn) [Example I-92] as the compound, how does the LogP read?
A: 2.69^[a]

Q: For `CC1(C(O)(Cc2ccnnc2Cl)Cn2cncn2)CC1` (stereo not drawn) [Example I-93], which LogP is on record?
A: 1.28^[a]

Q: With `OC(Cc1nc(Cl)ccc1Cl)(Cn1cncn1)C1(Cl)CC1` (stereo not drawn) [Example I-96] as the compound, how does the LogP read?
A: 2.73^[a]

Q: Which LogP does the source give for `OC(Cc1ncc(Cl)cc1Cl)(Cn1cncn1)C1(Cl)CC1` (stereo not drawn) [Example I-97] here?
A: 2.88^[a]

From patent publication US9822099B2, “Triazole derivatives” (priority 2013, dated 2017)
